Consider two compounds from patent EP0942721B1, “LIQUID COMPOSITION COMPRISING AN HIV PROTEASE INHIBITOR AND A C12-C18 FATTY ACID” (Abbott Laboratories, priority 1996, dated 1998).

What is called bioavailability is dose-corrected exposure relative to a reference, in per cent.

The nature of this data set: Oral bioavailability studies in dogs. The following applies: dog, administered as an unformulated solid in a capsule dosage form, 5 mg/kg oral dose in dogs. Type of data set: in vivo, beagle dogs. As to the method: Dogs (beagle dogs, mixed sexes, weighing 7-14 kg) were fasted overnight prior to dosing, but were permitted water ad libitum. Each dog received a 100 µg/kg subcutaneous dose of histamine approximately 30 minutes prior to dosing. Each dog received a single solid dosage form corresponding to a 5 mg/kg dose of the drug. The dose was followed by approximately 10 milliliters of water. Blood samples were obtained from each animal prior to dosing and 0.25, 0.5, 1.0,1.5, 2, 3, 4, 6, 8, 10 and 12 hours after drug administration. The plasma was separated from the red cells by centrifugation and frozen (-30°C) until analysis. Concentrations of parent drug were determined by reverse phase HPLC with low wavelength UV detection following liquid-liquid extraction of the plasma samples. The parent drug area under the curve was calculated by the trapezoidal method over the time course of the study. The absolute bioavailability of each test composition was calculated by comparing the area under the curve after oral dosing to that obtained from a single intravenous dose. Each capsule or capsule composition was evaluated in a group containing at least six dogs; the values reported are averages for each group of dogs.

In the case of `CC(C)c1nc(CN(C)C(=O)N[C@H](C(=O)N[C@@H](Cc2ccccc2)C[C@H](O)[C@H](Cc2ccccc2)NC(=O)OCc2cncs2)C(C)C)cs1` [compound III, (2S,3S,5S)-5-(N-(N-((N-Methyl-N-((2-isopropyl-4-thiazolyl)methyl)-amino)carbonyl)valinyl)amino)-2-(N-((5-thiazolyl)methoxycarbonyl)amino)-1,6-diphenyl-3-hydroxyhexane], the bioavailability (both sexes, beagle, plasma) is < 2%.

Turning to `CC(C)c1nc(CN(C)C(=O)N[C@H](C(=O)N[C@@H](Cc2ccccc2)C[C@H](O)[C@H](Cc2ccccc2)NC(=O)OCc2cncs2)C(C)C)cs1` [bis-tosylate of compound III], the bioavailability at 12 h (in vivo) was < 2%.
